Laboratory results published in ChEMBL document CHEMBL1131176, “Structure-based enhancement of boronic acid-based inhibitors of AmpC beta-lactamase” (J Med Chem, 1998).

Tests used:
Beta-lactamase [1] = biological target: T1, Beta-lactamase (Escherichia coli K-12, UniProt P00811); test: Inhibitory activity against Escherichia coli AmpC beta-lactamase.
Beta-lactamase [2] = biological target: T1, Beta-lactamase; test: Compound was tested for its specificity against AmpC beta-lactamase
Chymotrypsinogen A = Chymotrypsinogen A (Bos taurus, UniProt P00766); test: Compound was tested for its specificity against alpha-chymotrypsin
Homo sapiens = organism: Homo sapiens; test: Compound was tested for its specificity against Elastase

T1 sequence (P00811 whole entry): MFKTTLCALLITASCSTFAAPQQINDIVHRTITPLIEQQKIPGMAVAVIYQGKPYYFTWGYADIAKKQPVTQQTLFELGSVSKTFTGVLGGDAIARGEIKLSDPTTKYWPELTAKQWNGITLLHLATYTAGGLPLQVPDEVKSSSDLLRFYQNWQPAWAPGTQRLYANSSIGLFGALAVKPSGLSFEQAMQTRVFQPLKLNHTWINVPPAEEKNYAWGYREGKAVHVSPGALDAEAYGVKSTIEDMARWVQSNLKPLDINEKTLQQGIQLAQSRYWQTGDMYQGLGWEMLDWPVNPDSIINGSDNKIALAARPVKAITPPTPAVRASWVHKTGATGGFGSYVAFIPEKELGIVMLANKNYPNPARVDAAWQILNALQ

Row | Structure (SMILES) | Ki (Beta-lactamase [1]) [µM] | IC50 (Beta-lactamase [2]) [µM] | IC50 (Chymotrypsinogen A) [µM] | IC50 (Homo sapiens) [µM]
1 | OB(O)c1ccsc1 | 22.1 | – | – | –
2 | OB(O)c1ccccc1 [PHENYLBORONIC ACID] | 10.5 | – | – | –
3 | OB(c1ccccc1)c1ccccc1 [DIPHENYL BORINIC ACID] | > 100 | – | – | –
4 | OB(O)c1ccco1 | > 100 | – | – | –
5 | CCCCB(O)O [BUTYL BORONIC ACID] | > 100 | – | – | –
6 | O=Cc1ccccc1B(O)O | 25.3 | – | – | –
7 | OB(O)c1ccc(C(F)(F)F)cc1 | 3 | – | – | –
8 | O=C(O)c1cccc(B(O)O)c1 | > 100 | – | – | –
9 | CN(C)c1cccc2c(S(=O)(=O)Nc3cccc(B(O)O)c3)cccc12 [M(DANSYLAMIDOPHENYL)BORONIC ACID] | 1.3 | 5 | > 100 | 50
10 | OB(O)c1ccc(B(O)O)cc1 | 3.9 | – | – | –
11 | COc1ccc(B(O)O)cc1 | 5.9 | – | – | –
12 | O=Cc1ccsc1B(O)O | 3.8 | – | – | –
13 | OB(O)c1ccc(-c2ccc(B(O)O)cc2)cc1 | 0.2 | – | – | –
14 | OB(O)c1ccc(Br)cc1 | 3.6 | – | – | –
15 | CC(=O)c1ccc(B(O)O)s1 | 1.6 | – | – | –
16 | OB(O)c1cccs1 | – | – | > 200 | 200
17 | OB(O)c1cc2ccccc2o1 | 0.22 | 0.6 | 14 | –
18 | OB(O)c1cccc(C(F)(F)F)c1 | 1.1 | 5 | > 200 | > 200
19 | OB(O)c1cc2ccccc2c2ccccc12 | 7 | – | – | –
20 | OB(O)[C@@H]1CCOC1 | – | 5 | > 200 | > 200
21 | OB(O)c1cccc2ccccc12 | 12 | – | – | –
22 | Cc1ccc(B(O)O)cc1 [TOLYL BORONIC ACID] | 5.4 | – | – | –
23 | OB(O)c1ccc(Cl)s1 | 0.41 | 2 | > 100 | 200
24 | OB(O)c1ccc(F)cc1 | 6.4 | – | – | –
25 | O=Cc1ccc(B(O)O)cc1 | 2.9 | – | – | –
26 | OB(O)c1cc2ccccc2s1 | – | – | 5 | –
